Columns and labels:
[1] = test system: MCF-7 cells; assay: Label-free drug response analysis by electrical impedance (opacity) with the microfluidic device; assay type: cell-based; conditions: 1 μM STS, cultured 3 days under drug exposure, opacity clusters
Method: FIGS. 14a and 14b show the results of a drug response analysis for MCF-7 cells. As a first step, the viability of the cells was measured before and after analyzing these cells using one of the versions of the devices described in the present disclosure. […] Then, STS (with 1 μM concentration) were added to this well and the cells were cultured for another 3 days under the exposure of the drug.
(§1) In parallel, a control sample was also cultured under the same conditions without drug exposure was also analyzed for comparison. […] For the control sample, only one cluster, which were viable cells, were identified with 97% ratio for the total number of events. For the treated sample, 3 clusters were identified for viable, early apoptotic, and late apoptotic states with 44%, 19%, and 37% ratios, respectively. For validation, a commercially available apoptosis detection kit for fluorescent imaging were used and it provided the ratios of 47% viable and 53% apoptotic for the treated sample. A high-resolution drug response analysis were performed in a fully label free manner while keeping the cells intact, where the imaging required sample preparation and fixation of the cells, which kills the cells and the possibility of further functional analysis options.
Accordingly, embodiments of the present disclosure are capable of achieving measurement results when the electric field generating unit in the embodiments of the present disclosure delivers a voltage drop between electrodes of the present disclosure within the range of 0.1 to 0.5 V and, preferably, within the range of 0.2 to 0.4 V. The results shown in FIGS. 12, 13 and 14 were obtained with voltage values varying between 0.2-0.4 V for frequencies between 1-400 MHz with the maximum reachable voltage drop of 0.12 V, which is below the electroporation limit. […] These to be determined based on the sample, used electrolyte (medium conductivity), peripheral electronics (analyzers, power sources, etc.), size of the measurement volume, and the requirements of the analysis.

[2] = test system: MCF-7 cells; assay: Commercially available apoptosis detection kit for fluorescent imaging (validation); assay type: cell-based; conditions: 1 μM STS, 3 days
Method: as §1

## CN[C@@H]1C[C@H]2O[C@@](C)([C@@H]1OC)n1c3ccccc3c3c4c(c5c6ccccc6n2c5c31)C(=O)NC4 [STS]
[1]
  ratio of early apoptotic cluster to total number of events: 19%
  ratio of late apoptotic cluster to total number of events: 37%
  ratio of viable cluster to total number of events: 44%
[2]
  ratio apoptotic: 53%
  ratio viable: 47%
